Several values for one entry are separate records, joined by “and”; a condition that tells them apart may be missing. Equal values may be shown once.
Assays:
human CSNK1A1 = human CSNK1A1 (Homo sapiens (Human), UniProt P48729); assay: CSNK1A1 Assay 2 (ADP-Glo, 1 μM ATP); assay type: biochemical; settings: median, Table 2, read-out: CSNK1A1 Assay 2 IC50 [mol/l] (median)
In short: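 GST-tagged full-length human CSNK1A1 from insect cells, preincubated 15 min with compound, then reacted 30 min at 22° C with 1 μM ATP and 30 μM biotinylated peptide substrate in pH 7.5 HEPES buffer. ADP measured by ADP-Glo luminescence; normalised to no-inhibitor (0%) and no-enzyme (100%) controls.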

[1] = target: wild-type Epidermal Growth Factor Receptor (EGFR) (Homo sapiens (Human), UniProt P00533); assay: WT-EGFR kinase assay (TR-FRET, 2 mM ATP); assay type: biochemical; settings: median or individual measurements, Table 3, read-out: EGFR Wildtyp-2mM ATP IC50 [mol/l] (median)
Chain of wild-type Epidermal Growth Factor Receptor (EGFR) (P00533 669-1210): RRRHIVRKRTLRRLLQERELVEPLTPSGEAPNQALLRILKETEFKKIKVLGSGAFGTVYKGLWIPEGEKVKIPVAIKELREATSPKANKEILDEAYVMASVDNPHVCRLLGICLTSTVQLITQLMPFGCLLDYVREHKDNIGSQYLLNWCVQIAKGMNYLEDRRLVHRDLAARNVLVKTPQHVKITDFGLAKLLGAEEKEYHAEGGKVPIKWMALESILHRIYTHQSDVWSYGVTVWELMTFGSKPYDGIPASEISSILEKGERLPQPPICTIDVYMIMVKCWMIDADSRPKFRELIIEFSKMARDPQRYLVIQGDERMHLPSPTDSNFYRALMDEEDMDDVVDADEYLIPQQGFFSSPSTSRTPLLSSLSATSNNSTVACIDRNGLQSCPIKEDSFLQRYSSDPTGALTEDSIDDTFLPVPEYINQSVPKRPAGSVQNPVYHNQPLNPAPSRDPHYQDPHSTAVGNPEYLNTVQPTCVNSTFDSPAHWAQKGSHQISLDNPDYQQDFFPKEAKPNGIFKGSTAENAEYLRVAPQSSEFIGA
In short: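 GST-fused human EGFR (R669–A1210, Sf9-expressed) pre-incubated 15 min with compound, then reacted 30 min at 22° C with 2 mM ATP and 1 μM biotinylated peptide in Hepes pH 7.0 buffer. Phosphopeptide detected by HTRF (Tb anti-phosphotyrosine/streptavidin-XL665, 665/620 nm ratio); normalised to no-inhibitor and no-enzyme controls.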

Chain of human CSNK1A1 (P48729 whole entry): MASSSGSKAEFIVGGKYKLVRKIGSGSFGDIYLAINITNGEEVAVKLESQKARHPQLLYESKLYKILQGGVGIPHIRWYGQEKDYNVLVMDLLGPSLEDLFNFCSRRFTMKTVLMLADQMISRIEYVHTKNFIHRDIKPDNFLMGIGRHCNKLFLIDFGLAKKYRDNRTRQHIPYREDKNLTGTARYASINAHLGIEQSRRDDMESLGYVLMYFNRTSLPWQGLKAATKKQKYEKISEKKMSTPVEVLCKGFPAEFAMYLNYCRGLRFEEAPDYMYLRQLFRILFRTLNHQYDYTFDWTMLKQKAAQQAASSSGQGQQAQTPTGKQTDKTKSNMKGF

`CC1CN(C)C(=O)c2c1[nH]c(-c1ccnc(NC(=O)Cc3ccc(F)cc3)c1)c2Nc1ccccc1` (single isomer, unassigned; (-)) [Example 7, (−)-N-{4-[3-anilino-5,7-dimethyl-4-oxo-4,5,6,7-tetrahydro-1H-pyrrolo[3,2-c]pyridin-2-yl]pyridin-2-yl}-2-(4-fluorophenyl)acetamide] showed an IC50 (human CSNK1A1) of 5.5 nM and an IC50 [1] of 1300 nM.

`O=C1N[C@@H]2CCC[C@@H]2c2[nH]c(-c3ccnc(NC(=O)C(CC(F)F)c4ccc(F)cc4)c3)c(Nc3ccccc3)c21` (single isomer, unassigned; (-)) [Example 23, (−)-(2R or S)—N-{4-[cis-3-anilino-4-oxo-1,4,5,5a,6,7,8,8a-octahydrocyclopenta[b]pyrrolo[2,3-d]pyridin-2-yl]pyridin-2-yl}-4,4-difluoro-2-(4-fluorophenyl)butanamide] was tested, and the IC50 (human CSNK1A1) was 24 nM and the IC50 [1] was 13000 nM.

Compound `O=C1N[C@@H]2CCC[C@@H]2c2[nH]c(-c3ccnc(NC(=O)C(CC(F)F)c4ccc(F)cc4)c3)c(Nc3ccccc3)c21` (single isomer, unassigned; (-)) [Example 24, (−)-(2R or S)—N-{4-[cis-3-anilino-4-oxo-1,4,5,5a,6,7,8,8a-octahydrocyclopenta[b]pyrrolo[2,3-d]pyridin-2-yl]pyridin-2-yl}-4,4-difluoro-2-(4-fluorophenyl)butanamide] has an IC50 (human CSNK1A1) of 30 nM and an IC50 [1] of 310 nM.

Work on `CCC1CNC(=O)c2c1[nH]c(-c1ccnc(NC(=O)C(CC(F)F)c3ccc(F)cc3)c1)c2Nc1ccccc1` (stereo not drawn) [Example 4, N-{4-[3-anilino-7-ethyl-4-oxo-4,5,6,7-tetrahydro-1H-pyrrolo[3,2-c]pyridin-2-yl]pyridin-2-yl}-4,4-difluoro-2-(4-fluorophenyl)butanamide] yielded an IC50 (human CSNK1A1) of 16 nM and an IC50 [1] of 1200 nM.

`CN1CC(CC(F)(F)F)c2[nH]c(-c3ccnc(NC(=O)C(CC(F)F)c4ccc(F)cc4)c3)c(Nc3ccccc3)c2C1=O` (stereo not drawn) [Example 17, N-{4-[3-anilino-5-methyl-4-oxo-7-(2,2,2-trifluoroethyl)-4,5,6,7-tetrahydro-1H-pyrrolo[3,2-c]pyridin-2-yl]pyridin-2-yl}-4,4-difluoro-2-(4-fluorophenyl)butanamide] was tested, and the IC50 (human CSNK1A1) was 17 nM and the IC50 [1] was > 20000 nM and > 5700 nM and 3700 nM and 3200 nM.

`Cn1cc(CC2CC2)c2[nH]c(-c3ccnc(NC(=O)Cc4ccc(F)cc4)c3)c(Nc3ccccc3)c2c1=O` [Example 32, N-{4-[3-anilino-7-(cyclopropylmethyl)-5-methyl-4-oxo-4,5-dihydro-1H-pyrrolo[3,2-c]pyridin-2-yl]pyridin-2-yl}-2-(4-fluorophenyl)acetamide] showed an IC50 (human CSNK1A1) of 27 nM and an IC50 [1] of 860 nM.

`Cc1ccccc1Nc1c(-c2ccnc(NC(=O)Cc3ccc(F)cc3)c2)[nH]c2c(CC(F)(F)F)cn(C)c(=O)c12` [Example 33, 2-(4-fluorophenyl)-N-{4-[5-methyl-3-(2-methylanilino)-4-oxo-7-(2,2,2-trifluoroethyl)-4,5-dihydro-1H-pyrrolo[3,2-c]pyridin-2-yl]pyridin-2-yl}acetamide] was tested, and the IC50 (human CSNK1A1) was 8.6 nM and the IC50 [1] was 7 nM.

`Cn1cc(CC(F)(F)F)c2[nH]c(-c3ccnc(NC(=O)Cc4ccc(F)cc4)c3)c(Nc3ccccc3)c2c1=O` [Example 34, N-{4-[3-anilino-5-methyl-4-oxo-7-(2,2,2-trifluoroethyl)-4,5-dihydro-1H-pyrrolo[3,2-c]pyridin-2-yl]pyridin-2-yl}-2-(4-fluorophenyl)acetamide] showed an IC50 (human CSNK1A1) of 4.3 nM and an IC50 [1] of 20 nM.

`Cn1cc(CC(F)F)c2[nH]c(-c3ccnc(NC(=O)Cc4ccc(F)cc4)c3)c(Nc3ccccc3)c2c1=O` [Example 45, N-{4-[3-anilino-7-(2,2-difluoroethyl)-5-methyl-4-oxo-4,5-dihydro-1H-pyrrolo[3,2-c]pyridin-2-yl]pyridin-2-yl}-2-(4-fluorophenyl)acetamide] was tested, and the IC50 (human CSNK1A1) was 5.7 nM and the IC50 [1] was 150 nM.
